Data: patent US20090311217A1, “3-SUBSTITUTED-1H-INDOLE COMPOUNDS, THEIR USE AS MTOR KINASE AND PI3 KINASE INHIBITORS, AND THEIR SYNTHESES” (priority 2008, published 2009)

Legend:
Format in all cases: biochemical
PI3K-alpha = PI3K-alpha (Homo sapiens, UniProt P42336); experiment: PI3K-alpha fluorescence polarization assay; details: read-out: PI3Kα Avg. IC50
PI3K-gamma = PI3K-gamma (Homo sapiens, UniProt P48736); experiment: PI3K-gamma fluorescence polarization assay; details: PI3Kγ Avg. IC50
Method in brief: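 Enzyme 5 ng; substrate diC8-PI(4,5)P2 2.5 μM; ATP 25 μM; 5 mM HEPES pH 7, 2.5 mM MgCl2; DMSO ≤2%; 1 h, 25° C. Quench 10 mM EDTA. Detect with GRP1 PH domain 100 nM + TMR-IP4 probe 5 nM by polarization.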

human TOR = target: T1, human TOR (Homo sapiens, UniProt P42345); experiment: mTOR enzyme assay (DELFIA, His6-S6K substrate); details: read-out: mTOR Kinase Avg. IC50
T1 construct: FLAG

PI3K-gamma, sequence (P48736 whole entry, species assumed, the tested form may be a part): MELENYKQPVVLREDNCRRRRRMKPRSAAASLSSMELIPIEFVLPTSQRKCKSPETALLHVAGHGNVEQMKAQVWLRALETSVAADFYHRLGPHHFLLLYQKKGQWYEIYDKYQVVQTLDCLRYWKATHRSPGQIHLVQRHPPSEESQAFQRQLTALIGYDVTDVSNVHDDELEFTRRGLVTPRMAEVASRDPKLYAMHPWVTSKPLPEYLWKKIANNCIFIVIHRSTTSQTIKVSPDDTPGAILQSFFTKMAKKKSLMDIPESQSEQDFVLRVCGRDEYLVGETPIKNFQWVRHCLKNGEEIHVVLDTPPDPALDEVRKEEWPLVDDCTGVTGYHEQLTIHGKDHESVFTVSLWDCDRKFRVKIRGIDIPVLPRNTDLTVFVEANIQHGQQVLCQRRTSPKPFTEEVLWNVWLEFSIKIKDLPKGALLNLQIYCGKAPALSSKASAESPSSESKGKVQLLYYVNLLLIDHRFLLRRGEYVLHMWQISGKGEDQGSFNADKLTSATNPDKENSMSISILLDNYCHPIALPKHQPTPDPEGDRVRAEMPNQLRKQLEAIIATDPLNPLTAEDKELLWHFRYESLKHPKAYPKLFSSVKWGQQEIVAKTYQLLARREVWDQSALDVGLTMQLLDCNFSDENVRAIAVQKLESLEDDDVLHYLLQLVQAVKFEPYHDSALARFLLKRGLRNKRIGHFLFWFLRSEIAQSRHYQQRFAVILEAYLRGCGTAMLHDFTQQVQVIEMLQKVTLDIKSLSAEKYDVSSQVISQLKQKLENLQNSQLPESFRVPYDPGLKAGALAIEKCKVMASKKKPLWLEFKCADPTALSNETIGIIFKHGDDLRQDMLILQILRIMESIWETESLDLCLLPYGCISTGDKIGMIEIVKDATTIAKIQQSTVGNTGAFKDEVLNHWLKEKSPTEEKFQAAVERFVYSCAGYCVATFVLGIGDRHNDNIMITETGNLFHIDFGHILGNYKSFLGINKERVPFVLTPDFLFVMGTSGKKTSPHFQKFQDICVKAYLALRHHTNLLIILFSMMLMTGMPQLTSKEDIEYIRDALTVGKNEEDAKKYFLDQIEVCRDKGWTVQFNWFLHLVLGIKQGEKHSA
PI3K-alpha, sequence (P42336 whole entry, species assumed): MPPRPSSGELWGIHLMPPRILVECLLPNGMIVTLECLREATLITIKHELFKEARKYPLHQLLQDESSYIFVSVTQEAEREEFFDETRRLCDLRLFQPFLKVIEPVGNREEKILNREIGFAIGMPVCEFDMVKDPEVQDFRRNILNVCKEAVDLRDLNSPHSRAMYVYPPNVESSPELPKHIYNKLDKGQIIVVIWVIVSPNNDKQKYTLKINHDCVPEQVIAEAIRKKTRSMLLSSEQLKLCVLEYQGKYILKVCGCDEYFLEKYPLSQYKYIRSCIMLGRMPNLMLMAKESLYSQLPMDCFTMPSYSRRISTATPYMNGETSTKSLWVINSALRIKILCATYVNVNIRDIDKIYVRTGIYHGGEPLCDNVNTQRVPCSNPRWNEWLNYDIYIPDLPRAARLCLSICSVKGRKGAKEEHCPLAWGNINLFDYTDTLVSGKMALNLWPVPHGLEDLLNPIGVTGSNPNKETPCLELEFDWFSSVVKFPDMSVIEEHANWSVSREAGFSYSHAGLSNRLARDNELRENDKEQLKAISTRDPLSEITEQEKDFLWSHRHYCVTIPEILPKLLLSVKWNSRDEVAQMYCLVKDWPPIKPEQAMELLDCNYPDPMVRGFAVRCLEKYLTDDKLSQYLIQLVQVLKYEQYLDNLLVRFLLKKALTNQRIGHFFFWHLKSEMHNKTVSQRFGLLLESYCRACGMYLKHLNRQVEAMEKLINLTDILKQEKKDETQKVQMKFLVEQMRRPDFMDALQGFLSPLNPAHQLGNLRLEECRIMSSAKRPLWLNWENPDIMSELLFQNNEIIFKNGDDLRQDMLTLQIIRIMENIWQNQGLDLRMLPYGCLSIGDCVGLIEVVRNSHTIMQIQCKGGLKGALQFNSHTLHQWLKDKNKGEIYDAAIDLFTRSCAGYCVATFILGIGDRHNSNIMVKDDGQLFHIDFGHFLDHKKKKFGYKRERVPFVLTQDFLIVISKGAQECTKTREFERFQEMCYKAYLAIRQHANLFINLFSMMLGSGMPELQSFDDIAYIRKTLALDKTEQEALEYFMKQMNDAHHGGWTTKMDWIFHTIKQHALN
PI3K-alpha, sequence (P27986 whole entry partner, species assumed): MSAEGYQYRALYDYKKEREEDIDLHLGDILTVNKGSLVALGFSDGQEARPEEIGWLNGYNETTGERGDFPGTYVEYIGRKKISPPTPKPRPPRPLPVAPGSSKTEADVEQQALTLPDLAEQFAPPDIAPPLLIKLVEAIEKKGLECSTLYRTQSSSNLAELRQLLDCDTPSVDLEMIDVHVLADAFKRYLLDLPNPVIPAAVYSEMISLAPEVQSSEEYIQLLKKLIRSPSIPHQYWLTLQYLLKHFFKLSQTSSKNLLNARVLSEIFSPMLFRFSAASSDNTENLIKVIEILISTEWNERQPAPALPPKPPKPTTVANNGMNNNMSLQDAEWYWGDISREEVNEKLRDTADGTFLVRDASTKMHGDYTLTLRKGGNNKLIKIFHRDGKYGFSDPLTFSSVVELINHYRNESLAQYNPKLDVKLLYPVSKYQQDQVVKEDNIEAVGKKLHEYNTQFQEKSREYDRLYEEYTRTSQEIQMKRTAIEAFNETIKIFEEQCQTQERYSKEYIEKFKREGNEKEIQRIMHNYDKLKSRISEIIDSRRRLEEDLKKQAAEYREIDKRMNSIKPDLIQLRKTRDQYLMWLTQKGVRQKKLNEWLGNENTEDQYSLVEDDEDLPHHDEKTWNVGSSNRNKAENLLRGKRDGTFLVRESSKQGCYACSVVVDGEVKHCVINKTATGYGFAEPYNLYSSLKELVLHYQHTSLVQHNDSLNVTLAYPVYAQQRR

IC50 (PI3K-alpha) | IC50 (PI3K-gamma) | IC50 (human TOR) | Structure (SMILES)
1920 nM | 6030 nM | 535 nM | CNC(=O)Nc1ccc2c(c1)C(=O)/C(=C/c1c(-c3c(C)nn(C)c3C)[nH]c3ccc(OCCOC)cc13)O2 [Compound 680, 1-[(2Z)-2-{[5-(2-methoxyethoxy)-2-(1,3,5-trimethyl-1H-pyrazol-4-yl)-1H-indol-3-yl]methylidene}-3-oxo-2,3-dihydro-1-benzofuran-5-yl]-3-methylurea]
0.3 nM | 1.98 nM | 1 nM | COc1ccc2[nH]c(-c3c(C)nn(C)c3C)c(/C=C3\Oc4ccc(NC(=O)Nc5ccc(C(=O)N(C)CCN(C)C)cc5)cc4C3=O)c2c1 [Compound 682, N-[2-(dimethylamino)ethyl]-4-({[(2Z)-2-{[5-methoxy-2-(1,3,5-trimethyl-1H-pyrazol-4-yl)-1H-indol-3-yl]methylidene}-3-oxo-2,3-dihydro-1-benzofuran-5-yl]carbamoyl}amino)-N-methylbenzamide]
1.65 nM | 11 nM | 92 nM | CCn1c(C)c(/C=C2\Oc3ccc(NC(=O)Nc4ccc(OCCCNC)cc4)cc3C2=O)c2cc(OC)ccc21 [Compound 683, 1-{(2Z)-2-[(1-ethyl-5-methoxy-2-methyl-1H-indol-3-yl)methylidene]-3-oxo-2,3-dihydro-1-benzofuran-5-yl}-3-{4-[3-(methylamino)propoxy]phenyl}urea]
7 nM | 1720 nM | 19 nM | COc1ccc2c(c1)c(/C=C1\Oc3ccc(NC(=O)Nc4ccc(NCCN(C)C)cc4)cc3C1=O)c(C)n2CCN1CCN(C)CC1 [Compound 684, 1-(4-{[2-(dimethylamino)ethyl]amino}phenyl)-3-[(2Z)-2-({5-methoxy-2-methyl-1-[2-(4-methylpiperazin-1-yl)ethyl]-1H-indol-3-yl}methylidene)-3-oxo-2,3-dihydro-1-benzofuran-5-yl]urea]
0.8 nM | 115 nM | 16 nM | COc1ccc2c(c1)c(/C=C1\Oc3ccc(NC(=O)Nc4ccc(NC(=O)CCN(C)C)cc4)cc3C1=O)c(C)n2CCN1CCN(C)CC1 [Compound 685, N-[4-({[(2Z)-2-({5-methoxy-2-methyl-1-[2-(4-methylpiperazin-1-yl)ethyl]-1H-indol-3-yl}methylidene)-3-oxo-2,3-dihydro-1-benzofuran-5-yl]carbamoyl}amino)phenyl]-N3,N3-dimethyl-b-alaninamide]
0.7 nM | 5 nM | 110 nM | CCn1c(C)c(/C=C2\Oc3ccc(NC(=O)Nc4ccc(C(=O)N5CCOCC5)cc4)cc3C2=O)c2cc(OC)ccc21 [Compound 686, 1-{(2Z)-2-[(1-ethyl-5-methoxy-2-methyl-1H-indol-3-yl)methylidene]-3-oxo-2,3-dihydro-1-benzofuran-5-yl}-3-[4-(morpholin-4-ylcarbonyl)phenyl]urea]
1.1 nM | 44 nM | 87 nM | COc1ccc2c(c1)c(/C=C1\Oc3ccc(NC(=O)Nc4ccc(C(=O)N5CCOCC5)cc4)cc3C1=O)c(C)n2CCN1CCN(C)CC1 [Compound 687, 1-[(2Z)-2-({5-methoxy-2-methyl-1-[2-(4-methylpiperazin-1-yl)ethyl]-1H-indol-3-yl}methylidene)-3-oxo-2,3-dihydro-1-benzofuran-5-yl]-3-[4-(morpholin-4-ylcarbonyl)phenyl]urea]
0.3 nM | 1.95 nM | 6 nM | COc1ccc2[nH]c(C3CCCCC3)c(/C=C3\Oc4ccc(NC(=O)Nc5ccc(C(=O)N(C)CCN(C)C)cc5)cc4C3=O)c2c1 [Compound 688, 4-[({(2Z)-2-[(2-cyclohexyl-5-methoxy-1H-indol-3-yl)methylidene]-3-oxo-2,3-dihydro-1-benzofuran-5-yl}carbamoyl)amino]-N-[2-(dimethylamino)ethyl]-N-methylbenzamide]
